Consider two compounds from US20160166543A1 (priority 2014, published 2016).

The conditions of series [1]: rat, in vivo, po; cited from earlier work.
The conditions of series [2]: older adults, cited from earlier work.
Series [3] in a line: physchem. The series is classed as physicochemical. On the procedure: There are different types of cyclodextrins available. For the purpose of this patent application, the cyclodextrin can be one or more the following—alpha cyclodextrin (alpha CD), beta cyclodextrin (beta CD), gamma cyclodextrin (gamma CD), hydroxypropyl beta cyclodextrin (HPBCD), sulfobutyl ether beta cyclodextrin (SBEBCD), and randomly methylated beta cyclodextrin. […] The concentration of cyclodextrin in the samples ranged from 0 mg/mL to 12.5 mg/mL.

For series [4] the following is noted: humans; cited from earlier work.
The conditions of series [5]: in vivo, cited from earlier work.

Converted amounts (≈) assume the structure as drawn. Like-named read-outs stand apart in the source and are kept apart here.

For `COc1ccc2[nH]cc(CCNC(C)=O)c2c1` [Melatonin], in series [1], the LD50 result was “over 3200 mg/kg”. The Tmax in series [2] (high dose (>2 mg)) was 1.5 h. Moreover, the Tmax in series [2] (low dose (<0.5 mg)) is 1.3 h. In series [3], the “increase of solubility in water” value is listed as around 60% and the “saturation solubility in water” value came to 1750 µg/mL. The compound also gave a solubility in series [3] (water, thermodynamic from solid, saturation solubility in water) of around 1750 µg/mL (≈ 7.53 mM).
As for `CN(C)CCOC(C)(c1ccccc1)c1ccccn1` (stereo not shown) [Doxylamine succinate], the median lethal dose in series [4] was 50 to 500 mg/kg. Further, the apparent oral clearance in series [5] (po) was 217 mL/min. In series [5], the elimination half-life was 10.1 h and the “mean Cmax (maximum blood concentration)” value is 99 ng/mL.

As usually defined, the Tmax is the time at which the peak concentration occurs. A word on the solubility: it is how much of the substance goes into solution per volume.
